Here are results for two molecules from patent EP0223385B1, “8-Azabicyclo[3,2,1]octane and 9-azabicyclo[3,3,1]nonane derivatives” (BEECHAM GROUP PLC, priority 1985, dated 1987).

Counter-ions that a name gives are not always drawn.

The test system of this assay is von Bezold-Jarisch reflex evoked by 5-HT. Kind of assay: Antagonism of the von Bezold-Jarisch reflex evoked by 5-HT in the anaesthetised rat. The assay is classed as in vivo. Conditions: iv, anaesthetised male rats, compounds given intravenously, dose reducing the 5-HT-evoked (usually 6µg/kg i.v.) heart rate response to 50% of control, read-out: ED₅₀. On the procedure: The compounds were evaluated for antagonism of the von Bezold-Jarisch reflex evoked by 5-HT in the anaesthetised rat according to the following method:
Male rats 250-350g, were anaesthetised with urethane (1.25g/kg intraperitoneally) and blood pressure and heart rate recorded as described by Fozard J.R. et al., J. Cardiovasc. Pharmacol. 2, 229-245 (1980). A submaximal dose of 5-HT (usually 6µg/kg) was given repeatedly by the intravenous route and changes in heart rate quantified. Compounds were given intravenously and the concentration required to reduce the 5 HT-evoked response to 50% of the control response (ED₅₀) was then determined.

Regarding `CN1[C@@H]2CC[C@H]1C[C@@H](OC(=O)c1nn(C)c3ccccc13)C2` [Compound 1, 1-Methyl-3-indazolecarboxylic acid (endo-8-methyl-8-azabicyclo[3,2,1]oct-3-yl)ester monohydrochloride], the ED50 was found to be 1.4 µg/kg.

For the molecule `CN1[C@@H]2CCC[C@H]1C[C@@H](NC(=O)c1nn(C)c3ccccc13)C2` [Compound 2, N-(Endo-9-methyl-9-azabicyclo[3,3,1]non-3-yl)-1-methylindazole-3-carboxamide monohydrochloride], the ED50 was 0.7 µg/kg.
